Laboratory results published in paper PMC6019362, “^99mTc标记T7肽及其在裸鼠非小细胞肺癌模型体内的生物分布研究” (Chinese Journal of Lung Cancer, 2014).

Legend:
[1] = type: in vitro ADME, human
Procedure: 薄层色谱法检测标记率及放化纯度，以硅胶板为固定相，丙酮作为展开系统，毛细管点样，放射性γ计数器进行检测。稳定性检测:取500 μL的^99mTc-T7溶液分别加入1 mL的生理盐水和1 mL人血清中，37 ℃孵育8 h，用薄层色谱法检测放化纯度。

荷人NCI-H157裸鼠肺癌模型 = test system: 荷人NCI-H157裸鼠肺癌模型; design: species or system BALB/c裸鼠; settings: in vivo
Procedure: 将NCI-H157细胞株培养至对数生长期，弃去培养液，PBS清洗2次，0.25%胰酶消化，收集细胞，离心，生理盐水重悬并计数。无菌条件下，每只裸鼠右后肢背部皮下注射6×10^6个/200 μL的NCI-H157细胞悬液。裸鼠置于天津市实验动物中心SPF级动物房饲养，当肿瘤长径达0.6 cm-1.0 cm时进行实验(约30 d)。 将荷瘤裸鼠随机分成5组(0.5 h、1 h、2 h、4 h和8 h)，每组5只，分别尾静脉注射3.7 MBq/100 μL的^99mTc-T7溶液，注射后分别在0.5 h、1 h、2 h、4 h和8 h股动脉放血处死，分别取心、肝、脾、肺、肾、肌肉、骨骼、脑、肿瘤、小肠、胃，称湿重，测量γ计数，计算各脏器的每克组织注射剂量百分比(%ID/g)并分析肿瘤/非肿瘤(T/NT)比值。

Sequence: TMPFLFCNVNDVCNFASRNDYSKKK [^99mTc-T7, 羰基锝法标记的肿瘤抑素T7肽, ^99mTc(CO)3^+ labelled 25-mer, integrin αvβ3 targeted imaging probe]
- 放化纯 (radiochemical purity) after incubation [1]: > 90%
- 肿瘤/肌肉放射性比值 (T/NT) (荷人NCI-H157裸鼠肺癌模型): > 5
- 血脑屏障通过 (blood-brain barrier passage) (荷人NCI-H157裸鼠肺癌模型): 不能正常通过血脑屏障
- 8 h血放射性摄取值 (%ID/g) 相对于0.5 h (荷人NCI-H157裸鼠肺癌模型; mouse, iv, 3.7 MBq, 8 h): 26%
